Test results reported in patent US12291529B2, “Heterocyclic GLP-1 agonists” (Gasherbrum Bio, Inc., priority 2023, dated 2025).

Assays:
GLP-1 Receptor = GLP-1 Receptor (Homo sapiens, UniProt P43220); test: GLP-1R agonist cAMP stimulation assay (HEK293/GLP1R/CRE-LUC cells, Cisbio cAMP dynamic 2 kit); assay type: cell-based
Outline: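 HEK293 cells stably expressing human GLP-1R with CRE-Luc reporter, 1000 cells/well in DPBS with 0.5 mM IBMX and BSA. Cells treated with compound (½-log dilutions) for 30 min at 37 °C. cAMP read by HTRF at 665/615 nm; % activity relative to vehicle and maximal control.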

[1] = Caco-2 permeability / efflux study; assay type: in vitro ADME; details: human
Experimental: Incubations with Caco-2 cell monolayers were performed in duplicate in a 96-well Transwell plate. Transport buffer solution (HBSS, 10 mM HEPES, pH 7.4, with 0.5% BSA) containing test article (10 μM), and either the control compounds metoprolol (10 μM), cimetidine (10 μM) and erythromycin (10 μM), was added to appropriate donor wells of the apical or basolateral plate. The transport buffer with DMSO was added to appropriate wells of receiver wells. Following incubation at 37° C. for 2 hours, the cell plates were removed and 50 μL samples from both apical and basolateral sides were transferred into new 96-well plates. Subsequently, 200 μL of acetonitrile containing internal standard was added to all samples to precipitate protein prior to analysis by UPLC-MS/MS. Lucifer yellow was used as a marker to confirm the integrity of the cell monolayers after 2 hours incubation.

[2] = Table 3, HEK293/GLP1R/CRE-LUC cells, 30 min

GLP-1 Receptor, sequence (P43220 24-463, species assumed): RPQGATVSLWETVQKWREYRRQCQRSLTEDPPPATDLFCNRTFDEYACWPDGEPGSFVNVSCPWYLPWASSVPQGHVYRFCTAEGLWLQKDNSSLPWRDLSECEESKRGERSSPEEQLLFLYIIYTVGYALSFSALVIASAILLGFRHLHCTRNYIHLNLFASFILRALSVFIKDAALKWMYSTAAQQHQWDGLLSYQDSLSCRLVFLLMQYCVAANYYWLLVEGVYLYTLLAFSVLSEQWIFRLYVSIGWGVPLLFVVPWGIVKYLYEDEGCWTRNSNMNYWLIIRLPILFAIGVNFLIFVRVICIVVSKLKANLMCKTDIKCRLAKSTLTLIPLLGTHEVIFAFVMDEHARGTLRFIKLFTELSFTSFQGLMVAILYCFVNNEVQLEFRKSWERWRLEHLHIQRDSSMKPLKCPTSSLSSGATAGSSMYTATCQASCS

Structure (SMILES)	EC50 (GLP-1 Receptor; [2]) [nM]	other results
Cc1cc(-n2nc3c(c2N2CCN(c4ccc(S(C)(=N)=O)cc4)C2=O)[C@H](C)N(C(=O)c2cc4cc(C5CCOCC5)ccc4n2[C@@]2(c4noc(=O)[nH]4)C[C@@H]2C)CC3)cc(C)c1F (stereo partly drawn) [Compound 103, 3-[(1S,2S)-1-(2-{[(4S)-3-(3-{4-[azanylidene(methyl)(oxo)-λ^6-sulfanyl]phenyl}-2-oxotetrahydro-1H-imidazol-1-yl)-2-(4-fluoro-3,5-dimethylphenyl)-4-methyl-4,5,6,7-tetrahydropyrazolo[4,3-c]pyridin-5-yl]carbonyl}-5-(3,4,5,6-tetrahydro-2H-pyran-4-yl)indol-1-yl)-2-methylcyclopropyl]-4H,5H-1,2,4-oxadiazol-5-one]	0.14	–
Cc1cc(-n2nc3c(c2-n2ccn(-c4ccc(S(C)(=N)=O)cc4)c2=O)[C@H](C)N(C(=O)c2cc4cc(N5CCOCC5)ccc4n2C2(c4noc(=O)[nH]4)CC2)CC3)cc(C)c1F (some centres unmarked) [Compound 106]	0.67	–
Cc1cc(-n2nc3c(c2-n2ccn(-c4ccc(S(C)(=N)=O)cc4)c2=O)[C@H](C)N(C(=O)c2cc4cc(C5CCOCC5)ccn4c2C2(c4noc(=O)[nH]4)CC2)CC3)cc(C)c1F (some centres unmarked) [Compound 107]	0.46	–
Cc1cc(-n2nc3c(c2-n2ccn(-c4ccc(S(C)(=N)=O)cc4)c2=O)[C@H](C)N(C(=O)c2cn4cc(C5CCOCC5)ccc4c2C2(c4noc(=O)[nH]4)CC2)CC3)cc(C)c1F (some centres unmarked) [Compound 109]	0.27	–
C[C@H]1c2c(nn(-c3ccc(F)c(C4CC4)c3)c2-n2ccn(-c3ccc(S(C)(=N)=O)cc3)c2=O)CCN1C(=O)c1cc2cc(C3CCOCC3)ccc2n1[C@@]1(c2noc(=O)[nH]2)C[C@@H]1C (some centres unmarked) [Compound 118]	0.04	–
Cc1cc(-n2nc3c(c2-n2ccn(-c4ccc(S(C)(=N)=O)cc4)c2=O)[C@H](C)N(C(=O)c2cc4cc(C5CCOCC5)ccc4n2-c2cccc(S(=O)(=O)Nc4ncccn4)c2)CC3)cc(C)c1F (some centres unmarked) [Compound 119]	1	–
CCS(=O)(=NC)c1ccc(-n2ccn(-c3c4c(nn3-c3cc(C)c(F)c(C)c3)CCN(C(=O)c3cc5cc(C6CCOCC6)ccc5n3CC3CCCO3)[C@H]4C)c2=O)cc1 (some centres unmarked) [Compound 163]	20	–
CN=S1(=O)CCC(Oc2ccc(-n3ccn(-c4c5c(nn4-c4cc(C)c(F)c(C)c4)CCN(C(=O)c4cc6cc([C@H]7CCOC(C)(C)C7)ccc6n4[C@@]4(c6noc(=O)[nH]6)C[C@@H]4C)[C@H]5C)c3=O)cc2C2CC2)CC1 (some centres unmarked) [Compound 237]	0.07	–

More lines, main results first:

EC50 (GLP-1 Receptor; [2]) [nM]	Structure (SMILES)	other results
0.072	CCS(=O)(=NC)c1ccc(-n2ccn(-c3c4c(nn3-c3cc(C)c(F)c(C)c3)CCN(C(=O)c3cc5cc(C6CCOCC6)ccc5n3[C@@]3(c5noc(=O)[nH]5)C[C@@H]3C)[C@H]4C)c2=O)c(Cl)c1 (single isomer, unassigned) [Compound 151]	EC50 (GLP-1 Receptor; Table 4): 0.072 nM; Papp at 2 h, 10 μM ([1]; Caco-2, pH 7.4, 10 μM, 37° C., pH 7.4, 0.5% BSA, read-out: Caco-2 Perm): 0.3 ×10⁻⁶ cm/s; efflux ratio at 2 h, 10 μM ([1]; Caco-2, pH 7.4, Caco-2 efflux ratio, 10 μM): 36.8
0.067	Cc1cc(-n2nc3c(c2-n2ccn(-c4ccc5c(c4)CCS5(=N)=O)c2=O)[C@H](C)N(C(=O)c2cc4cc(C5CCOCC5)ccc4n2[C@@]2(c4noc(=O)[nH]4)C[C@@H]2C)CC3)cc(C)c1F (stereo partly drawn) [Compound 101, 3-[(1S,2S)-1-(2-{[(4S)-3-[3-(1-azanylidene-l-oxo-2,3-dihydro-1λ^6-benzo[b]thiophen-5-yl)-2-oxoimidazol-1-yl]-2-(4-fluoro-3,5-dimethylphenyl)-4-methyl-4,5,6,7-tetrahydropyrazolo[4,3-c]pyridin-5-yl]carbonyl}-5-(3,4,5,6-tetrahydro-2H-pyran-4-yl)indol-1-yl)-2-methylcyclopropyl]-4H,5H-1,2,4-oxadiazol-5-one]	–
0.17	Cc1cc(-n2nc3c(c2-n2ccn(-c4ccc(S(C)(=N)=O)nc4)c2=O)[C@H](C)N(C(=O)c2cc4cc(C5CCOCC5)ccc4n2[C@@]2(c4noc(=O)[nH]4)C[C@@H]2C)CC3)cc(C)c1F (stereo partly drawn) [Compound 102, 3-[(1S,2S)-1-(2-{[(4S)-3-(3-{6-[azanylidene(methyl)(oxo)-λ^6-sulfanyl]pyridin-3-yl}-2-oxoimidazol-1-yl)-2-(4-fluoro-3,5-dimethylphenyl)-4-methyl-4,5,6,7-tetrahydropyrazolo[4,3-c]pyridin-5-yl]carbonyl}-5-(3,4,5,6-tetrahydro-2H-pyran-4-yl)indol-1-yl)-2-methylcyclopropyl]-4H,5H-1,2,4-oxadiazol-5-one]	–
0.009	CNc1cc(-n2ccn(-c3c4c(nn3-c3cc(C)c(F)c(C)c3)CCN(C(=O)c3cc5cc(C6CCOCC6)ccc5n3[C@@]3(c5nc(=O)o[nH]5)C[C@@H]3C)[C@H]4C)c2=O)ccc1S(C)(=N)=O (stereo partly drawn) [Compound 105, 3-[(1S,2S)-1-(2-{[(S)-2-(4-fluoro-3,5-xylyl)-3-{3-[4-(iminomethyloxothio)-3-(methylamino)phenyl]-2-oxo-1,3-dihydro-1-imidazolyl}-4-methyl-4,5,6,7-tetrahydro-2H-1,2,5-triazainden-5-yl]carbonyl}-5-(tetrahydro-2H-pyran-4-yl)-1-indolyl)-2-methylcyclopropyl]-1,2,4-oxadiazol-5(4H)-one]	–
0.013	Cc1cc(-n2nc3c(c2-n2ccn(-c4ccc5c(c4)CCN=S5(C)=O)c2=O)[C@H](C)N(C(=O)c2cc4cc(C5CCOCC5)ccc4n2[C@@]2(c4noc(=O)[nH]4)C[C@@H]2C)CC3)cc(C)c1F (stereo partly drawn) [Compound 108, 6-{3-[(4S)-2-(4-fluoro-3,5-dimethylphenyl)-5-({1-[(1S,2S)-2-methyl-1-(5-oxo-4H-1,2,4-oxadiazol-3-yl)cyclopropyl]-5-(3,4,5,6-tetrahydro-2H-pyran-4-yl)indol-2-yl}carbonyl)-4-methyl-4,5,6,7-tetrahydropyrazolo[4,3-c]pyridin-3-yl]-2-oxoimidazol-1-yl}-1-methyl-3,4-dihydro-1λ^6-benzo[2,1-e][1,2]thiazin-1-one]	–
0.028	Cc1cc(-n2nc3c(c2-n2ccn(-c4ccc(S(C)(=N)=O)cc4)c2=O)[C@H](C)N(C(=O)c2cc4cc(C5CCOCC5)ccc4n2[C@@]2(c4noc(=O)[nH]4)C[C@@H]2C)CC3)cc(C)c1F (some centres unmarked) [Compound 110]	–
0.014	Cc1cc(-n2nc3c(c2-n2ccn(-c4ccc(CS(C)(=N)=O)cc4)c2=O)[C@H](C)N(C(=O)c2cc4cc(C5CCOCC5)ccc4n2[C@@]2(c4noc(=O)[nH]4)C[C@@H]2C)CC3)cc(C)c1F (stereo partly drawn) [Compound 111, 3-[(1S,2S)-1-(2-{[(4S)-3-[3-(4-{[azanylidene(methyl)(oxo)-λ^6-sulfanyl]methyl}phenyl)-2-oxoimidazol-1-yl]-2-(4-fluoro-3,5-dimethylphenyl)-4-methyl-4,5,6,7-tetrahydropyrazolo[4,3-c]pyridin-5-yl]carbonyl}-5-(3,4,5,6-tetrahydro-2H-pyran-4-yl)indol-1-yl)-2-methylcyclopropyl]-4H,5H-1,2,4-oxadiazol-5-one]	–
0.071	COc1cc(-n2ccn(-c3c4c(nn3-c3cc(C)c(F)c(C)c3)CCN(C(=O)c3cc5cc(C6CCOCC6)ccc5n3[C@@]3(c5noc(=O)[nH]5)C[C@@H]3C)[C@H]4C)c2=O)ccc1S(C)(=N)=O (stereo partly drawn) [Compound 123, 3-[(1S,2S)-1-(2-{[(S)-2-(4-fluoro-3,5-xylyl)-3-{3-[4-(iminomethyloxothio)-3-methoxyphenyl]-2-oxo-1,3-dihydro-1-imidazolyl}-4-methyl-4,5,6,7-tetrahydro-2H-1,2,5-triazainden-5-yl]carbonyl}-5-(tetrahydro-2H-pyran-4-yl)-1-indolyl)-2-methylcyclopropyl]-1,2,4-oxadiazol-5(4H)-one]	–
0.01	Cc1cc(-n2ccn(-c3c4c(nn3-c3cc(C)c(F)c(C)c3)CCN(C(=O)c3cc5cc(C6CCOCC6)ccc5n3[C@@]3(c5noc(=O)[nH]5)C[C@@H]3C)[C@H]4C)c2=O)ccc1S(C)(=N)=O (some centres unmarked) [Compound 124]	–
0.028	Cc1cc(-n2nc3c(c2-n2ccn(-c4ccc5c(c4)CS(C)(=O)=N5)c2=O)[C@H](C)N(C(=O)c2cc4cc(C5CCOCC5)ccc4n2[C@@]2(c4noc(=O)[nH]4)C[C@@H]2C)CC3)cc(C)c1F (some centres unmarked) [Compound 225]	–
0.025	Cc1cc(-n2nc3c(c2-n2ccn(-c4ccc(OC5CCS(=N)(=O)CC5)cc4)c2=O)[C@H](C)N(C(=O)c2cc4cc(C5CCOCC5)ccc4n2[C@@]2(c4noc(=O)[nH]4)C[C@@H]2C)CC3)cc(C)c1F (stereo partly drawn) [Compound 226, 3-((1S,2S)-1-(2-((S)-2-(4-fluoro-3,5-dimethylphenyl)-3-(3-(4-((1-imino-1-oxidohexahydro-1λ^6-thiopyran-4-yl)oxy)phenyl)-2-oxo-2,3-dihydro-1H-imidazol-1-yl)-4-methyl-4,5,6,7-tetrahydro-2H-pyrazolo[4,3-c]pyridine-5-carbonyl)-5-(tetrahydro-2H-pyran-4-yl)-1H-indol-1-yl)-2-methylcyclopropyl)-1,2,4-oxadiazol-5(4H)-one]	–
0.015	Cc1cc(-n2nc3c(c2-n2ccn(-c4ccc5c(c4)CS(C)(=O)=N5)c2=O)[C@H](C)N(C(=O)c2cc4cc([C@H]5CCOC(C)(C)C5)ccc4n2[C@@]2(c4noc(=O)[nH]4)C[C@@H]2C)CC3)cc(C)c1F (stereo partly drawn) [Compound 227, 5-{3-[(4S)-2-(4-fluoro-3,5-dimethylphenyl)-5-({5-[(4S)-2,2-dimethyl-3,4,5,6-tetrahydro-2H-pyran-4-yl]-1-[(1S,2S)-2-methyl-1-(5-oxo-4H-1,2,4-oxadiazol-3-yl)cyclopropyl]indol-2-yl}carbonyl)-4-methyl-4,5,6,7-tetrahydropyrazolo[4,3-c]pyridin-3-yl]-2-oxoimidazol-1-yl}-2-methyl-3H-2λ^6-benzo[c][1,2]thiazol-2-one]	–
